Measured values taken from patent US9499486B2, “Kinase inhibitor” (RESPIVERT LIMITED, priority 2014, dated 2016).

Target: c-Src (Homo sapiens (Human), UniProt P12931)
Test: c-Src enzyme inhibition, Z-LYTE FRET
Format: biochemical
Method: The relevant enzyme (3000 ng/mL or 2000 ng/mL respectively, 2.5 μL) is incubated with the test compound (either 1 μg/mL, 0.1 μg/mL, 0.01 μg/mL, or 0.001 μg/mL, 2.5 μL each) for 2 hr at RT. The FRET peptides (8 μM, 2.5 μL), and appropriate ATP solutions (2.5 μL, 800 μM for c-Src, and 60 μM ATP for Syk) are then added to the enzymes/compound mixtures and the mixture incubated for 1 hr. Development reagent (protease, 5 μL) is added for 1 hr prior to detection in a fluorescence microplate reader (Varioskan® Flash, ThermoFisher Scientific).
In all cases, the site-specific protease cleaves non-phosphorylated peptide only and eliminates the FRET signal. Phosphorylation levels of each reaction are calculated using the ratio of coumarin emission (donor) over fluorescein emission (acceptor), for which high ratios indicate high phosphorylation and low ratios indicate low phosphorylation levels.

Chain of c-Src (P12931 whole entry, looked up): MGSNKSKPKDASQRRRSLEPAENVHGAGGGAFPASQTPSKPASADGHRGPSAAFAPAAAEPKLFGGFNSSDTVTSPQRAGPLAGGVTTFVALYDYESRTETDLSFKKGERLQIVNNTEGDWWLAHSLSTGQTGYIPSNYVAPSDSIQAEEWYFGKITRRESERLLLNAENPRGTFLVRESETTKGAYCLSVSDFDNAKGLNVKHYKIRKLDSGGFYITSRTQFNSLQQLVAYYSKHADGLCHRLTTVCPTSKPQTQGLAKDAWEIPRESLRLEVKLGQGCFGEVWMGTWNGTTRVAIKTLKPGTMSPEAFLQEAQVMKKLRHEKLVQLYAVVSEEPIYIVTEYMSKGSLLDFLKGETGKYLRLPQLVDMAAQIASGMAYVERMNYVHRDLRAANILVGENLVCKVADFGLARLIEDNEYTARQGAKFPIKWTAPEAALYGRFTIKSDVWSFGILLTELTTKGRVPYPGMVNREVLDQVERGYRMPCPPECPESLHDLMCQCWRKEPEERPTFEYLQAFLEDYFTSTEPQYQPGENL

Compound: COc1cc(Nc2cc(Oc3ccc(NC(=O)Nc4cc(C(C)(C)C)cc(NS(C)(=O)=O)c4OC)c4ccccc34)ccn2)ccc1C(=O)O [Example 1, 4-((4-((4-(3-(5-(tert-Butyl)-2-methoxy-3-(methylsulfonamido)phenyl)ureido)naphthalen-1-yl)oxy)pyridin-2-yl)amino)-2-methoxybenzoic acid]
- IC50: 14 nM
